Data: patent publication US10399989B2, “Pyrazolopyrimidine derivatives as BTK inhibitors for the treatment of cancer” (Loxo Oncology, Inc., priority 2016, dated 2019)
Where two headings read alike, the source gives them in different places.

What was measured:
[1] = system: OCI-Ly10 human DLBCL cells; assay: OCI-Ly10 anti-proliferative activity (Resazurin, 72 h); format: cell-based; settings: read-out: Proliferation OCI-Ly10-IC50
Method: Compounds were assayed for effects on the growth of OCI-Ly10 human DLBCL cells that are dependent on NFκB signalling. OCI-Ly10 cells were grown in suspension in T225 flasks, centrifuged and re-suspended in 2.5% FBS containing media. Cells were then plated at 7.5×10^3 cells per well in 96-well plates in varying concentrations of compound and incubated for 72 h at 37° C. An additional plate of cells to be used as the Day 0 read was seeded without compound addition, Resazurin was added to each well, incubated for 5 h and the fluorescence measured at 590 nm. After 72 h of compound treatment, Resazurin was added to each well of the compound treated plates, incubated for 5 h and the fluorescence measured at 590 nm. The IC50 was then calculated by subtracting the average Day 0 value from each well value from the treated plates, each treatment was then calculated as a percentage of the DMSO control and the percentages plotted against the inhibitor concentration to estimate the IC50 from log [Inhibitor] vs response using the Variable Slope model in Graphpad prism from Graphpad software (SanDiego, Calif.).

BTK^C481S = BTK^C481S (Homo sapiens (Human), UniProt Q06187, C481S); assay: BTK^C481S binding affinity (TR-FRET, LanthaScreen); settings: 5 h incubation
Method: (§1) BTK^C481S binding affinity of each compound tested was determined using a time-resolved fluorescence resonance energy transfer (TR-FRET) methodology. 5 nM Recombinant […] kinase, varying concentrations of inhibitor, 2 nM LanthaScreen™ Eu anti-His Antibody and 30 nM Kinase Tracer 236 was incubated in 1× LanthaScreen™ Kinase Buffer A for 5 h. Recombinant BTK^C481S kinase was purchased from SignalChem and all LanthaScreen™ components were purchased from Invitrogen. Measurements were performed in a reaction volume of 30 μL using half-area 96-well assay plates. The TR-FRET signal was read on a plate reader with an excitation wavelength of 340 nm and detection wavelengths of 615 and 665 nm. Binding affinity was determined for each compound by measuring TR-FRET signal at various concentrations of compound and plotting the relative fluorescence units against the inhibitor concentration to estimate the IC50 from log [Inhibitor] vs response using the Variable Slope model in Graphpad prism from Graphpad software (SanDiego, Calif.).

EGFR = EGFR (Homo sapiens (Human), UniProt P00533); assay: EGFR binding affinity (TR-FRET, LanthaScreen); settings: 5 h incubation
Method: EGFR binding affinity was determined using a time-resolved fluorescence resonance energy transfer (TR-FRET) methodology. 2.5 nM Recombinant EGFR, varying concentrations of inhibitor, 2 nM LanthaScreen™ Eu anti-GST Antibody and 3 nM Kinase Tracer 199 was incubated in 1× LanthaScreen™ Kinase Buffer A for 5 h. Recombinant EGFR and all LanthaScreen™ components were purchased from Invitrogen. Measurements were performed in a reaction volume of 30 μL using half-area 96-well assay plates. The TR-FRET signal was read on a plate reader with an excitation wavelength of 340 nm and detection wavelengths of 615 and 665 nm. Binding affinity was determined for each compound by measuring TR-FRET signal at various concentrations of compound and plotting the relative fluorescence units against the inhibitor concentration to estimate the IC50 from log [Inhibitor] vs response using the Variable Slope model in Graphpad prism from Graphpad software (SanDiego, Calif.).

BTK^WT = BTK^WT (Homo sapiens (Human), UniProt Q06187); assay: BTK^WT binding affinity (TR-FRET, LanthaScreen)
Method: as §1, with “BTK^WT binding” for “BTK^C481S binding”, “methodology. 2.5” for “methodology. 5”, “and 15” for “and 30”, “Recombinant BTK” for “Recombinant BTK^C481S”, “kinase” for “kinase was purchased from SignalChem”

[2] = TR-FRET binding, 5 h incubation, read-out: BTK^WT IC50
[3] = Table 6, numeric values, read-out: BTK Binding IC50

Chain of EGFR (P00533 25-1210): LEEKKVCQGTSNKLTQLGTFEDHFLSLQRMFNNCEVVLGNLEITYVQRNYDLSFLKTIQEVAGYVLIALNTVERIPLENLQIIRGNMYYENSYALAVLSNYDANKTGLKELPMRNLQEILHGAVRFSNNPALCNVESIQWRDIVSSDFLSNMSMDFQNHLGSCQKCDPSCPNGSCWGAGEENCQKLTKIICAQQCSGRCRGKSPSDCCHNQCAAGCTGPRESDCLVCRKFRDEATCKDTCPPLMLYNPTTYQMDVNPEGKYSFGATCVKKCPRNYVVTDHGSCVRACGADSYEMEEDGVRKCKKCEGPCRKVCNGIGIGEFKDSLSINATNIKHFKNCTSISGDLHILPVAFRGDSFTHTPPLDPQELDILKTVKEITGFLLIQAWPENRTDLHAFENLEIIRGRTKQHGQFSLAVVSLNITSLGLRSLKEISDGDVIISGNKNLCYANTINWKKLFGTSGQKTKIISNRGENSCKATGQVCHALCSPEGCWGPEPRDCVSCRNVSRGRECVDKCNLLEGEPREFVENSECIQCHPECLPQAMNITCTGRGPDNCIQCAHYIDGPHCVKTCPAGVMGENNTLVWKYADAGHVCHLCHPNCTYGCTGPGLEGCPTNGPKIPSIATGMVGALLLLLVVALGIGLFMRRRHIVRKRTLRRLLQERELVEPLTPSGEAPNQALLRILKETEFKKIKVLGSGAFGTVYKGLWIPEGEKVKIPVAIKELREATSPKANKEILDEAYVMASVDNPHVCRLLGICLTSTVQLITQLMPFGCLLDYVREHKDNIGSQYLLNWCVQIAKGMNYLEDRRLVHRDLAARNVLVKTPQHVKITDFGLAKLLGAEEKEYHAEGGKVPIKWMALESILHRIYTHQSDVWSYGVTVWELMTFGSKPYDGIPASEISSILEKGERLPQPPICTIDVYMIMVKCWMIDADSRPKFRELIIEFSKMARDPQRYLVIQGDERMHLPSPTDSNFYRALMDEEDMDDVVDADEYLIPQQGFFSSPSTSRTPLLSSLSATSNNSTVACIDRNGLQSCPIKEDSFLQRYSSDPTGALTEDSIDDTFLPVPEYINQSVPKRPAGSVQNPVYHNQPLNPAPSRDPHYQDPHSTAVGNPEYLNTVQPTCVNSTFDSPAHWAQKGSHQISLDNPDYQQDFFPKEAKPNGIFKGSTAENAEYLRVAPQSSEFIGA
Chain of BTK^WT (Q06187 whole entry): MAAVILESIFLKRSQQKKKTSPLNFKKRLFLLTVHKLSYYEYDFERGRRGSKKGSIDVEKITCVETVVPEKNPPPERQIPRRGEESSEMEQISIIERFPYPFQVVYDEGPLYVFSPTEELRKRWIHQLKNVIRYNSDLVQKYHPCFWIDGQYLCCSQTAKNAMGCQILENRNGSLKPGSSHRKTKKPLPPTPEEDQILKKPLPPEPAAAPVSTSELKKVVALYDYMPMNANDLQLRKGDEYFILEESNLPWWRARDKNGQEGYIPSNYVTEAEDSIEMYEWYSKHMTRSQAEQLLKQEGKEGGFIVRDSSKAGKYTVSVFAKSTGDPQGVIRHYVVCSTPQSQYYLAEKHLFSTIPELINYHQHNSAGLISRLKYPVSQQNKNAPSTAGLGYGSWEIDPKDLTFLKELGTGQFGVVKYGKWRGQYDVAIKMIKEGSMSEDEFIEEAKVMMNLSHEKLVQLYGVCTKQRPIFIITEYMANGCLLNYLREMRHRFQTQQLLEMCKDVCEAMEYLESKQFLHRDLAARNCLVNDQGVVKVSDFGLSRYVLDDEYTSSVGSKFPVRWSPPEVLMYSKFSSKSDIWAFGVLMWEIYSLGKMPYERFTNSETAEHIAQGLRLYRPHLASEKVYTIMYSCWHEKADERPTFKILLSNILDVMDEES
Chain of BTK^C481S (Q06187 whole entry C481S): as the sequence (Q06187 whole entry) above, with C481S counted along it

Structure (SMILES) | IC50 [1] | IC50 (BTK^C481S) | IC50 (EGFR) | IC50 (BTK^WT; [2]) | IC50 (BTK^WT; [3]) | IC50 ([1]; Homo sapiens, OCI-Ly10, 72 h)
COc1ccccc1C(=O)NCc1ccc(-c2nn(C3CCC(C)(O)CC3)c3ncnc(N)c23)cc1 (single isomer, unassigned) [Example 91, N-[[4-[4-amino-1-(4-hydroxy-4-methyl-cyclohexyl)pyrazolo[3,4-d]pyrimidin-3-yl]phenyl]methyl]-2-methoxy-benzamide] | 100 to 1000 nM | ≤ 10 nM | 100 to 1000 nM | ≤ 10 nM | – | –
COc1ccccc1C(=O)NCc1ccc(-c2nn(C3CCC(C)(O)CC3)c3ncnc(N)c23)cc1 (single isomer, unassigned) [Example 92, N-[[4-[4-Amino-1-(4-hydroxy-4-methyl-cyclohexyl)pyrazolo[3,4-d]pyrimidin-3-yl]phenyl]methyl]-2-methoxy-benzamide] | 10 to 100 nM | ≤ 10 nM | 100 to 1000 nM | ≤ 10 nM | – | –
COc1ccccc1C(=O)NCc1ccc(-c2nn(C3CCC(C(=O)N(C)C)CC3)c3ncnc(N)c23)cc1 (single isomer, unassigned; isomer 1) [33-isomer 1] | 10 to 100 nM | ≤ 10 nM | 100 to 1000 nM | ≤ 10 nM | – | –
COc1ccc(F)cc1C(=O)NCc1ccc(-c2nn(C3CCCC3)c3ncnc(N)c23)cc1 [Example 4, N-[[4-(4-Amino-1-cyclopentyl-pyrazolo[3,4-d]pyrimidin-3-yl)phenyl]methyl]-5-fluoro-2-methoxy-benzamide] | – | ≤ 10 nM | 100 to 1000 nM | ≤ 10 nM | 0.8 nM | 10 to 100 nM
COc1ccccc1C(=O)NCc1ccc(-c2nn(C3CCCO3)c3ncnc(N)c23)cc1 (stereo not drawn) [Example 5, N-[[4-(4-amino-1-tetrahydrofuran-2-yl-pyrazolo[3,4-d]pyrimidin-3-yl)phenyl]methyl]-2-methoxy-benzamide] | – | 10 to 100 nM | 1000 to 10000 nM | 10 to 100 nM | – | 100 to 1000 nM
CCOc1ccccc1C(=O)NCc1ccc(-c2nn(C3CCCC3)c3ncnc(N)c23)cc1 [Example 7, N-[[4-(4-amino-1-cyclopentyl-pyrazolo[3,4-d]pyrimidin-3-yl)phenyl]methyl]-2-ethoxy-benzamide] | – | ≤ 10 nM | 1000 to 10000 nM | ≤ 10 nM | – | 100 to 1000 nM
CC(C)Oc1ccccc1C(=O)NCc1ccc(-c2nn(C3CCCC3)c3ncnc(N)c23)cc1 [Example 8, N-[[4-(4-amino-1-cyclopentyl-pyrazolo[3,4-d]pyrimidin-3-yl)phenyl]methyl]-2-isopropoxy-benzamide] | – | ≤ 10 nM | 1000 to 10000 nM | 10 to 100 nM | – | 1000 to 10000 nM
COc1ccc(C)cc1C(=O)NCc1ccc(-c2nn(C3CCCC3)c3ncnc(N)c23)cc1 [Example 12, N-[[4-(4-amino-1-cyclopentyl-pyrazolo[3,4-d]pyrimidin-3-yl)phenyl]methyl]-2-methoxy-5-methyl-benzamide] | – | ≤ 10 nM | 1000 to 10000 nM | ≤ 10 nM | – | 10 to 100 nM
COc1ccccc1C(=O)NCc1ccc(-c2nn(C3CCC(=O)C3)c3ncnc(N)c23)cc1 (stereo not drawn) [Example 21, N-[[4-[4-amino-1-(3-oxocyclopentyl)pyrazolo[3,4-d]pyrimidin-3-yl]phenyl]methyl]-2-methoxy-benzamide] | – | ≤ 10 nM | 1000 to 10000 nM | ≤ 10 nM | – | 100 to 1000 nM
COc1ccccc1C(=O)NCc1ccc(-c2nn(C3CCC4(C3)OCCO4)c3ncnc(N)c23)cc1 (stereo not drawn) [Example 25, N-[[4-[4-amino-1-(1,4-dioxaspiro[4.4]nonan-8-yl)pyrazolo[3,4-d]pyrimidin-3-yl]phenyl]methyl]-2-methoxy-benzamide] | – | ≤ 10 nM | 100 to 1000 nM | ≤ 10 nM | – | 10 to 100 nM
COc1ccccc1C(=O)NCc1ccc(-c2nn(C3CCC(=O)CC3)c3ncnc(N)c23)cc1 [Example 26, N-[[4-[4-amino-1-(4-oxocyclohexyl)pyrazolo[3,4-d]pyrimidin-3-yl]phenyl]methyl]-2-methoxy-benzamide] | – | ≤ 10 nM | 100 to 1000 nM | 10 to 100 nM | – | 100 to 1000 nM
CNC1CCC(n2nc(-c3ccc(CNC(=O)c4ccccc4OC)cc3)c3c(N)ncnc32)CC1 (stereo not drawn) [Example 28, N-[[4-[4-amino-1-[4-(methylamino)cyclohexyl]pyrazolo[3,4-d]pyrimidin-3-yl]phenyl]methyl]-2-methoxy-benzamide] | – | 10 to 100 nM | 100 to 1000 nM | 10 to 100 nM | – | 100 to 1000 nM
COc1ccccc1C(=O)NCc1ccc(-c2nn(C3CCOCC3)c3ncnc(N)c23)cc1 [Example 29, N-[[4-(4-amino-1-tetrahydropyran-4-yl-pyrazolo[3,4-d]pyrimidin-3-yl)phenyl]methyl]-2-methoxy-benzamide] | – | ≤ 10 nM | 100 to 1000 nM | ≤ 10 nM | – | 100 to 1000 nM

Now from value to compound:

IC50 [1] | IC50 (BTK^C481S) | IC50 (EGFR) | IC50 (BTK^WT; [2]) | IC50 (BTK^WT; [3]) | IC50 ([1]; Homo sapiens, OCI-Ly10, 72 h) | Structure (SMILES)
10 to 100 nM | ≤ 10 nM | 100 to 1000 nM | ≤ 10 nM | 0.4 nM | – | COc1ccccc1C(=O)NCc1ccc(-c2nn(C3CCC(O)CC3)c3ncnc(N)c23)cc1 (single isomer, unassigned) [Example 23-isomer2, N-[[4-[4-amino-1-(4-hydroxycyclohexyl)pyrazolo[3,4-d]pyrimidin-3-yl]phenyl]methyl]-2-methoxy-benzamide]
– | ≤ 10 nM | 100 to 1000 nM | ≤ 10 nM | – | 10 to 100 nM | COc1ccc(F)cc1C(=O)NCc1ccc(-c2nn(C3CCC(C)(O)CC3)c3ncnc(N)c23)cc1 (single isomer, unassigned) [Example 94, N-[[4-[4-Amino-1-(4-hydroxy-4-methyl-cyclohexyl)pyrazolo[3,4-d]pyrimidin-3-yl]phenyl]methyl]-5-fluoro-2-methoxy-benzamide]
10 to 100 nM | ≤ 10 nM | 100 to 1000 nM | ≤ 10 nM | – | – | COc1ccc(F)cc1C(=O)NCc1ccc(-c2nn(C3CCC(C)(O)CC3)c3ncnc(N)c23)cc1 (single isomer, unassigned) [Example 95, N-[[4-[4-Amino-1-(4-hydroxy-4-methyl-cyclohexyl)pyrazolo[3,4-d]pyrimidin-3-yl]phenyl]methyl]-5-fluoro-2-methoxy-benzamide]
– | ≤ 10 nM | 1000 to 10000 nM | ≤ 10 nM | – | 10 to 100 nM | COc1ccc(Cl)cc1C(=O)NCc1ccc(-c2nn(C3CCCC3)c3ncnc(N)c23)cc1 [Example 11, N-[[4-(4-amino-1-cyclopentyl-pyrazolo[3,4-d]pyrimidin-3-yl)phenyl]methyl]-5-chloro-2-methoxy-benzamide]
– | 10 to 100 nM | 100 to 1000 nM | 10 to 100 nM | – | 100 to 1000 nM | COc1ccncc1C(=O)NCc1ccc(-c2nn(C3CCCC3)c3ncnc(N)c23)cc1 [Example 27, N-[[4-(4-amino-1-cyclopentyl-pyrazolo[3,4-d]pyrimidin-3-yl)phenyl]methyl]-4-methoxy-pyridine-3-carboxamide]
– | ≤ 10 nM | 100 to 1000 nM | ≤ 10 nM | – | 10 to 100 nM | COc1ccccc1C(=O)NCc1ccc(-c2nn(C3CCCC(=O)C3)c3ncnc(N)c23)cc1 (stereo not drawn) [Example 31, N-[[4-[4-amino-1-(3-oxocyclohexyl)pyrazolo[3,4-d]pyrimidin-3-yl]phenyl]methyl]-2-methoxy-benzamide]
